Laboratory results reported in patent US20030108576A1, “Composition” (Colgate-Palmolive Company, priority 2001, published 2003).

Experiment: Vitamin E stability aging of the compositions in clear PET packaging
Type: physicochemical
Method: Samples of each example are put on stability aging using clear PET packaging at room temperature, 77° F.; high temperature, 110° F.; and in the window for natural sunlight exposure. Samples are evaluated for vitamin content initially, then again at 4,8, and 13 weeks. Below are the results.

## CC(C)(C)c1cc(O)ccc1O [2-tertiary butyl hydroquinone]
77° F. and 110° F.
  retention of vitamin E compared with other antioxidants: essentially equivalent to the other antioxidants
sunlight
  retention of vitamin E in sunlight compared with other test antioxidants: substantially more retention of vitamin E in sunlight than any of the other test antioxidants
